# The supplement of paper PMC10307832
# Key:
# Assay in all cases: relative viability (nuclei count vs DMSO), 5 days (fraction); higher = more cells survive
# [1] = test system: BEN
# Procedure, shortened: (§1)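 Cells from lung cancer lines were seeded into 1536-well plates and, one day later, dosed by pin tool. Treatments were either a single drug or a fixed dose of an anchor drug with five library-drug doses (not always all listed) in √10 steps. After 5 days, nuclei were stained in a one-step fixation (final 0.05% Triton X-100, 1% formaldehyde, 1 ug/ml Hoechst) and counted on 4× images, and relative viability is the treated-to-vehicle nuclei ratio, as the median of duplicate plates.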
# [2] = test system: EKVX
# Procedure, shortened: as §1
# [3] = test system: HARA
# Procedure, shortened: as §1
# [4] = test system: HCC-366
# Procedure, shortened: as §1
# [5] = test system: HCC-44
# Procedure, shortened: as §1
# [6] = test system: HCC-827
# Procedure, shortened: as §1
# [7] = test system: LC-2-ad
# Procedure, shortened: as §1
# [8] = test system: LOU-NH91
# Procedure, shortened: as §1
# [9] = test system: NCI-H1355
# Procedure, shortened: as §1
# [10] = test system: NCI-H1395
# Procedure, shortened: as §1
# [11] = test system: NCI-H1437
# Procedure, shortened: as §1
# [12] = test system: NCI-H1734
# Procedure, shortened: as §1
# [13] = test system: NCI-H1792
# Procedure, shortened: as §1
# [14] = test system: NCI-H2009
# Procedure, shortened: as §1
# [15] = test system: NCI-H2087
# Procedure, shortened: as §1
# [16] = test system: NCI-H2170
# Procedure, shortened: as §1
# [17] = test system: NCI-H2342
# Procedure, shortened: as §1
# [18] = test system: NCI-H2405
# Procedure, shortened: as §1
# [19] = test system: NCI-H596
# Procedure, shortened: as §1
# [20] = test system: NCI-H647
# Procedure, shortened: as §1
# [21] = test system: NCI-H661
# Procedure, shortened: as §1
# [22] = test system: SK-LU-1
# Procedure, shortened: as §1
# [23] = test system: SK-MES-1
# Procedure, shortened: as §1
compound,measurement,setting,value
COc1cc(N2CCC(C(N)=O)CC2)ccc1Nc1nc(N)c(Cl)c(Nc2ccccc2S(=O)(=O)C(C)C)n1 [HG-5-88-01] + Nc1ncn([C@H]2C[C@H](O)[C@@H](CO)O2)c(=O)n1 [Decitabine] (partner 2 µM),relative viability,[1]; first compound 0.04 µM,0.532
same,relative viability,[1]; first compound 0.1265 µM,0.738
same,relative viability,[1]; first compound 0.4 µM,0.77
same,relative viability,[1]; first compound 1.265 µM,0.725
same,relative viability,[1]; first compound 4 µM,0.545
same,relative viability,[2]; first compound 0.04 µM,0.392
same,relative viability,[2]; first compound 0.1265 µM,0.332
same,relative viability,[2]; first compound 0.4 µM,0.389
same,relative viability,[2]; first compound 4 µM,0.345
same,relative viability,[3]; first compound 0.04 µM,0.581
same,relative viability,[3]; first compound 0.1265 µM,0.504
same,relative viability,[3]; first compound 0.4 µM,0.663
same,relative viability,[3]; first compound 1.265 µM,0.451
same,relative viability,[3]; first compound 4 µM,0.494
same,relative viability,[4]; first compound 0.04 µM,0.367
same,relative viability,[4]; first compound 0.1265 µM,0.357
same,relative viability,[4]; first compound 0.4 µM,0.436
same,relative viability,[4]; first compound 1.265 µM,0.338
same,relative viability,[4]; first compound 4 µM,0.343
same,relative viability,[5]; first compound 0.04 µM,0.936
same,relative viability,[5]; first compound 0.1265 µM,0.996
same,relative viability,[5]; first compound 0.4 µM,0.913
same,relative viability,[5]; first compound 1.265 µM,0.996
same,relative viability,[5]; first compound 4 µM,0.817
same,relative viability,[6]; first compound 0.04 µM,0.292
same,relative viability,[6]; first compound 0.1265 µM,0.304
same,relative viability,[6]; first compound 0.4 µM,0.354
same,relative viability,[6]; first compound 1.265 µM,0.19
same,relative viability,[6]; first compound 4 µM,0.209
same,relative viability,[7]; first compound 0.04 µM,0.782
same,relative viability,[7]; first compound 0.1265 µM,0.719
same,relative viability,[7]; first compound 0.4 µM,0.771
same,relative viability,[7]; first compound 1.265 µM,0.814
same,relative viability,[7]; first compound 4 µM,0.855
same,relative viability,[8]; first compound 0.04 µM,0.796
same,relative viability,[8]; first compound 0.1265 µM,0.844
same,relative viability,[8]; first compound 0.4 µM,0.725
same,relative viability,[8]; first compound 1.265 µM,0.587
same,relative viability,[8]; first compound 4 µM,0.6
same,relative viability,[9]; first compound 0.04 µM,0.337
same,relative viability,[9]; first compound 0.1265 µM,0.382
same,relative viability,[9]; first compound 0.4 µM,0.38
same,relative viability,[9]; first compound 1.265 µM,0.334
same,relative viability,[9]; first compound 4 µM,0.331
same,relative viability,[10]; first compound 0.04 µM,0.765
same,relative viability,[10]; first compound 0.1265 µM,0.712
same,relative viability,[10]; first compound 0.4 µM,0.789
same,relative viability,[10]; first compound 1.265 µM,0.682
same,relative viability,[10]; first compound 4 µM,0.751
same,relative viability,[11]; first compound 0.04 µM,0.529
same,relative viability,[11]; first compound 0.1265 µM,0.565
same,relative viability,[11]; first compound 0.4 µM,0.465
same,relative viability,[11]; first compound 1.265 µM,0.579
same,relative viability,[11]; first compound 4 µM,0.821
same,relative viability,[12]; first compound 0.04 µM,0.526
same,relative viability,[12]; first compound 0.1265 µM,0.564
same,relative viability,[12]; first compound 0.4 µM,0.511
same,relative viability,[12]; first compound 1.265 µM,0.462
same,relative viability,[12]; first compound 4 µM,0.532
same,relative viability,[13]; first compound 0.04 µM,0.628
same,relative viability,[13]; first compound 0.1265 µM,0.452
same,relative viability,[13]; first compound 0.4 µM,0.579
same,relative viability,[13]; first compound 1.265 µM,0.564
same,relative viability,[13]; first compound 4 µM,0.545
same,relative viability,[14]; first compound 0.04 µM,0.355
same,relative viability,[14]; first compound 0.1265 µM,0.384
same,relative viability,[14]; first compound 0.4 µM,0.338
same,relative viability,[14]; first compound 1.265 µM,0.314
same,relative viability,[14]; first compound 4 µM,0.377
same,relative viability,[15]; first compound 0.04 µM,0.315
same,relative viability,[15]; first compound 0.1265 µM,0.365
same,relative viability,[15]; first compound 0.4 µM,0.325
same,relative viability,[15]; first compound 1.265 µM,0.246
same,relative viability,[15]; first compound 4 µM,0.242
same,relative viability,[16]; first compound 0.04 µM,0.461
same,relative viability,[16]; first compound 0.1265 µM,0.479
same,relative viability,[16]; first compound 0.4 µM,0.509
same,relative viability,[16]; first compound 1.265 µM,0.439
same,relative viability,[16]; first compound 4 µM,0.486
same,relative viability,[17]; first compound 0.04 µM,0.751
same,relative viability,[17]; first compound 0.1265 µM,0.808
same,relative viability,[17]; first compound 0.4 µM,0.808
same,relative viability,[17]; first compound 4 µM,0.801
same,relative viability,[18]; first compound 0.04 µM,0.67
same,relative viability,[18]; first compound 0.1265 µM,0.754
same,relative viability,[18]; first compound 0.4 µM,0.783
same,relative viability,[18]; first compound 1.265 µM,0.624
same,relative viability,[18]; first compound 4 µM,0.672
same,relative viability,[19]; first compound 0.04 µM,1.02
same,relative viability,[19]; first compound 0.1265 µM,0.973
same,relative viability,[19]; first compound 0.4 µM,1.04
same,relative viability,[19]; first compound 1.265 µM,0.981
same,relative viability,[19]; first compound 4 µM,0.974
same,relative viability,[20]; first compound 0.04 µM,0.375
same,relative viability,[20]; first compound 0.1265 µM,0.494
same,relative viability,[20]; first compound 1.265 µM,0.529
same,relative viability,[20]; first compound 4 µM,0.679
same,relative viability,[21]; first compound 0.04 µM,0.54
same,relative viability,[21]; first compound 0.1265 µM,0.595
same,relative viability,[21]; first compound 0.4 µM,0.653
same,relative viability,[21]; first compound 1.265 µM,0.515
same,relative viability,[21]; first compound 4 µM,0.56
same,relative viability,[22]; first compound 0.04 µM,0.525
same,relative viability,[22]; first compound 0.1265 µM,0.595
same,relative viability,[22]; first compound 0.4 µM,0.598
same,relative viability,[22]; first compound 1.265 µM,0.598
same,relative viability,[22]; first compound 4 µM,0.344
same,relative viability,[23]; first compound 0.04 µM,0.408
same,relative viability,[23]; first compound 0.1265 µM,0.368
same,relative viability,[23]; first compound 0.4 µM,0.407
same,relative viability,[23]; first compound 1.265 µM,0.459
same,relative viability,[23]; first compound 4 µM,0.34
